According to ChEMBL document CHEMBL6092217 (Eur J Med Chem, 2024):
pIC50, pKd: −log10 of the molar value. Active and inactive are the calls of the source. The calls are words filed in the database; no cut-off is given here.

Key:
MCF7 = assay: Antiproliferative activity against human MCF7 cells assessed as cell viability incubated for 72 hrs by MTT assay; assay type: functional, cell-based; details: MCF7, 72 h
[1] = Binding affinity to porcine brain tubulin assessed as dissociation constant measured after 20 mins by fluorescence based analysis; parameters: species or system Sus scrofa
Tubulin (Homo sapiens) [2] = molecular target: T1, Tubulin (Homo sapiens) (UniProt P68371+Q9H4B7+P0DPH7+P68366+Q13509+Q71U36+P04350+Q3ZCM7+P07437+P68363+Q9BQE3+Q6PEY2+Q13885+Q9BVA1+Q9BUF5); assay: Disruption of microtubule network in human HT-29 cells incubated for 8 hrs by DAPI staining based confocal microscopic analysis; assay type: cell-based; details: dose 50-200 nM
Tubulin (Homo sapiens) [3] = molecular target: T1, Tubulin (Homo sapiens); assay: Inhibition of tubulin polymerization in human HT-29 cells assessed as reduction in beta-tubulin expression 50 to 200 nM incubated for 24 hrs by Western blot analysis; assay type: cell-based; details: dose 50-200 nM
Tubulin (Homo sapiens) [4] = molecular target: T1, Tubulin (Homo sapiens); assay: Inhibition of tubulin polymerization in human HT-29 cells assessed as downregulation of acetylated alpha-tubulin expression 50 to 200 nM incubated for 24 hrs by Western blot analysis; assay type: cell-based; details: dose 50-200 nM
HT-29 [5] = assay: Induction of cell cycle arrest in human HT-29 cells assessed as accumulation of cells at G1 phase at 50 nM incubated for 24 hrs by flow cytometry analysis (reference value: 67.6%); assay type: functional
HT-29 [6] = assay: Induction of cell cycle arrest in human HT-29 cells assessed as accumulation of cells at G1 phase at 100 nM incubated for 24 hrs by flow cytometry analysis (reference value: 67.6%); assay type: functional
HT-29 [7] = assay: Induction of cell cycle arrest in human HT-29 cells assessed as accumulation of cells at S phase at 50 nM incubated for 24 hrs by flow cytometry analysis (reference value: 20.8 %); assay type: functional
HT-29 [8] = assay: Induction of cell cycle arrest in human HT-29 cells assessed as accumulation of cells at G2 phase at 50 nM incubated for 24 hrs by flow cytometry analysis (reference value: 13 %); assay type: functional
HT-29 [9] = assay: Induction of cell cycle arrest in human HT-29 cells assessed as accumulation of cells at G2 phase at 100 nM incubated for 24 hrs by flow cytometry analysis (reference value: 13 %); assay type: functional
HT-29 [10] = assay: Induction of cell cycle arrest in human HT-29 cells assessed as accumulation of cells at G2 phase at 200 nM incubated for 24 hrs by flow cytometry analysis (reference value: 13 %); assay type: functional
HT-29 [11] = assay: Induction of cell cycle arrest in human HT-29 cells assessed as effect on CDC2 expression at 50 to 200 nM incubated for 24 hrs by Western blot analysis; assay type: functional, cell-based; details: dose 50-200 nM
HT-29 [12] = assay: Induction of cell cycle arrest in human HT-29 cells assessed as reduction in p-CDC2 expression incubated for 24 hrs by Western blot analysis; assay type: functional, cell-based; details: dose 50-200 nM
HT-29 [13] = assay: Induction of apoptosis in human HT-29 cells assessed as viable cells at 50 nM incubated for 24 hrs by FITC/PI staining based flow cytometry analysis (reference value: 91.6%); assay type: functional; details: read-out: Activity
HT-29 [14] = assay: Induction of apoptosis in human HT-29 cells assessed as early apoptotic cells at 50 nM incubated for 24 hrs by FITC/PI staining based flow cytometry analysis (reference value: 8.14%); assay type: functional
HT-29 [15] = assay: Induction of apoptosis in human HT-29 cells assessed as necrotic cells at 200 nM incubated for 24 hrs by FITC/PI staining based flow cytometry analysis (reference value: 0.017 %); assay type: functional
HT-29 [16] = assay: Induction of apoptosis in human HT-29 cells assessed as upregulation of cleaved PARP level at 50 to 200 nM incubated for 24 hrs by Western blot analysis; assay type: functional, cell-based; details: dose 50-200 nM
HT-29 [17] = assay: Induction of apoptosis in human HT-29 cells assessed as downregulation of Bcl-2 level at 50 to 200 nM incubated for 24 hrs by Western blot analysis; assay type: functional, cell-based; details: dose 50-200 nM
Mitochondrial membrane [18] = assay: Induction of mitochondrial membrane potential loss in human HT-29 cells assessed as increase in green fluorescence at 50 to 100 nM incubated for 24 hrs by JC-1 staining based confocal microscopic analysis; assay type: cell membranes; details: dose 50-100 nM
Mitochondrial membrane [19] = assay: Induction of mitochondrial membrane potential loss in human HT-29 cells assessed as decrease in red fluorescence at 50 to 100 nM incubated for 24 hrs by JC-1 staining based confocal microscopic analysis; assay type: cell membranes; details: dose 50-100 nM
HUVEC = assay: Inhibition of tube formation in HUVEC cells incubated for 6 hrs by inverted microscopic analysis; assay type: functional, cell-based; details: Homo sapiens, dose 50-100 nM
HT-29 [20] = assay: Antitumor activity against human HT-29 cells xenografted in BALB/c mouse assessed as tumor growth inhibition at 10 mg/kg, iv measured after 21 days; assay type: functional; details: HT-29, 504 h, time 21 day, read-out: TGI
HT-29 [21] = assay: Antitumor activity against human HT-29 cells xenografted in BALB/c mouse assessed as reduction in Ki67 expression at 10 to 40 mg/kg, iv measured after 21 days by immunohistochemical analysis; assay type: functional, organism-based; details: dose 10-40 mg/kg, time 21.0 day
HT-29 [22] = assay: Antitumor activity against human HT-29 cells xenografted in BALB/c mouse assessed as reduction in CD31 expression at 10 to 40 mg/kg, iv measured after 21 days by immunohistochemical analysis; assay type: functional, organism-based; details: dose 10-40 mg/kg, time 21.0 day
[23] = Toxicity in BALB/c mouse assessed as heart damage at 10 to 40 mg/kg, iv measured after 21 days by H and E staining based analysis; assay type: organism-based; details: in vivo, 504 h, dose 10-40 mg/kg, time 21 day
[24] = Toxicity in BALB/c mouse assessed as spleen damage at 10 to 40 mg/kg, iv measured after 21 days by H and E staining based analysis; assay type: organism-based; details: in vivo, 504 h, dose 10-40 mg/kg, time 21 day
[25] = Toxicity in BALB/c mouse assessed as lung damage at 10 to 40 mg/kg, iv measured after 21 days by H and E staining based analysis; assay type: organism-based; details: in vivo, 504 h, dose 10-40 mg/kg, time 21 day
[26] = Toxicity in ICR mouse assessed as effect on AST level at 10 to 40 mg/kg, iv administered every 2 days and measured after 14 days; assay type: organism-based; details: in vivo, 336 h, dose 10-40 mg/kg, time 14 day
[27] = Toxicity in ICR mouse assessed as effect on ALT level at 10 to 40 mg/kg, iv administered every 2 days and measured after 14 days; assay type: organism-based; details: in vivo, 336 h, dose 10-40 mg/kg, time 14 day
[28] = Toxicity in ICR mouse assessed as effect on CREA level at 10 to 40 mg/kg, iv administered every 2 days and measured after 14 days; assay type: organism-based; details: in vivo, 336 h, dose 10-40 mg/kg, time 14 day
[29] = Toxicity in ICR mouse assessed as effect on CK level at 10 to 40 mg/kg, iv administered every 2 days and measured after 14 days; assay type: organism-based; details: in vivo, 336 h, dose 10-40 mg/kg, time 14 day
[30] = Toxicity in ICR mouse assessed as effect on lymphocytes count at 10 to 40 mg/kg, iv administered every 2 days and measured after 14 days; assay type: organism-based; details: in vivo, 336 h, dose 10-40 mg/kg, time 14 day
[31] = Toxicity in ICR mouse assessed as effect on RBC count at 10 to 40 mg/kg, iv administered every 2 days and measured after 14 days; assay type: organism-based; details: in vivo, 336 h, dose 10-40 mg/kg, time 14 day
[32] = Toxicity in ICR mouse assessed as effect on WBC count at 10 to 40 mg/kg, iv administered every 2 days and measured after 14 days; assay type: organism-based; details: in vivo, 336 h, dose 10-40 mg/kg, time 14 day
[33] = AUC (0 to t) in Sprague-Dawley rat at 5 mg/kg, iv measured upto 24 hrs by HPLC-MS analysis; assay type: ADME, organism-based; details: in vivo

With COc1ccc(N(C)c2nc(/C=C/c3cccc(OC)c3)nc3ccccc23)cc1 the pIC50 (MCF7) was 6.96, the pKd [1] was 5.06 and the Activity (Tubulin (Homo sapiens) [2]) was “Dose-dependent-effect”. For the same compound, the inhibition (Tubulin (Homo sapiens) [3]) was “Active”, the inhibition (Tubulin (Homo sapiens) [4]) was “Active” and the Activity (HT-29 [5]) was 64.6%. For the same compound, the Activity (HT-29 [6]) was 35.6%, the Activity (HT-29 [7]) was 16.5% and the Activity (HT-29 [8]) was 17.8%. For the same compound, the Activity (HT-29 [9]) was 39.8%, the Activity (HT-29 [10]) was 69.8% and the Activity (HT-29 [11]) was “inactive”. For the same compound, the Activity (HT-29 [12]) was “Dose-dependent-effect”, the viability at 0.05 µM (HT-29 [13]) was 72% and the Activity (HT-29 [14]) was 12.7%. For the same compound, the Activity (HT-29 [15]) was 1.36%, the Activity (HT-29 [16]) was “Active” and the Activity (HT-29 [17]) was “Active”. The Activity (Mitochondrial membrane [18]) was “Active”, the Activity (Mitochondrial membrane [19]) was “Active” and the inhibition (HUVEC) was “Dose-dependent-effect”. The inhibition in vivo at 10 mg/kg (HT-29 [20]) was 53%, the Activity (HT-29 [21]) was “Active” and the Activity (HT-29 [22]) was “Active”. For the same compound, the Activity [23] was “Non-toxic”, the Activity [24] was “Non-toxic” and the Activity [25] was “Non-toxic”. The Activity [26] was “Non-toxic”, the Activity [27] was “Non-toxic” and the Activity [28] was “Non-toxic”. For the same compound, the Activity [29] was “Non-toxic”, the Activity [30] was “Non-toxic” and the Activity [31] was “Non-toxic”. The Activity [32] was “Non-toxic” and the AUC(0-t) at 24 h [33] was 3820 ng·h/mL.
